Experimental data reported in patent US20050037069A1, “Solid and stable creatine/citric acid composition(s) and compositions carbohydrate(s) or hydrates thereof, method for the production and use thereof” (priority 2002, published 2005).

Assay: Storage stability: creatinine (creatine decomposition product) content after storage
Assay type: physicochemical
Settings: for Creatinine content / Observations: 40° C., 28 days
Description: A creatine-citric acid compound (3:1) (KC) as pure substance and mixtures of this compound (3:1) with 1, 5 and 10% by weight addition of a carbohydrate (CH) were stored for 28 days at 60° C. and then the contents of the creatine decomposition product creatinine were determined.

[1] = Addition: 1% by weight carbohydrate (CH)
[2] = Addition: 5% by weight carbohydrate (CH)
[3] = Addition: 10% by weight carbohydrate (CH)

CN(CC(=O)O)C(=N)N.CN(CC(=O)O)C(=N)N.CN(CC(=O)O)C(=N)N.O=C(O)CC(O)(CC(=O)O)C(=O)O [KC without CH, creatine-citric acid compound (3:1)]
Creatinine content [1]: 770 ppm | Observations [1]: white | Creatinine content [2]: 770 ppm | Observations [2]: white | Creatinine content [3]: 770 ppm | Observations [3]: white | creatinine content, initial data (reference substance before storage, limit of detection): < 67 ppm
